Experiment: Comparative stability: HPLC assay of samples stored in open vials
Type: physicochemical
Conditions: for assay after storage: open vial; for Initial assay: before storage, HPLC assay
Description: The assay was determined by use of UV-HPLC (e.g., Shimadzu Nexera X2 System) with an autosampler temperature set at 25° C. and a column temperature set at 50° C. Typically 1 μL of sample is injected and separation is obtained by use of a Phenomenex Gemini 5.0 μm 110 Å, 50×2.0 mm column using a flow of 1.5 mL/min. Samples are typically prepared by solubilization in acetonitrile/carbonate buffer pH10 1/1. A gradient method is used with solvent A consisting of Trizma base buffer 50 mM pH 9 (adjusted with HCl) and solvent B consisting of Acetonitrile+5% (v/v) Trizma base buffer 50 mM pH 9 (adjusted with HCl). Following gradient is typically used: […]

NS(=O)(=O)[N-]c1ncnc(OCCOc2ncc(Br)cn2)c1-c1ccc(Br)cc1.[Na+] [COMPOUND in crystalline form 1, sodium (5-(4-bromophenyl)-6-(2-((5-bromopyrimidin-2-yl)oxy)ethoxy)pyrimidin-4-yl)(sulfamoyl)amide]
assay after storage (40° C., 7 days, 11% RH): 104.4%
assay after storage (40° C., 7 days, 75% RH): 104.0%
assay after storage (60° C., 7 days, 11% RH): 104.5%
assay after storage (60° C., 7 days, 75% RH): 102.6%
assay after storage (80° C., 3 days, 11% RH): 103.4%
assay after storage (80° C., 3 days, 75% RH): 72.4%
Initial assay: 104.1%
chemical stability in comparison to aprocitentan free acid form (in crystalline Form A) (under certain experimental conditions of Table 5): superior chemical stability

NS(=O)(=O)Nc1ncnc(OCCOc2ncc(Br)cn2)c1-c1ccc(Br)cc1 [{5-(4-bromo-phenyl)-6-[2-(5-bromo-pyrimidin-2-yloxy)-ethoxy]-pyrimidin-4-yl}-sulfamide, reference compound]
assay after storage (40° C., 7 days, 11% RH): 97.2%
assay after storage (40° C., 7 days, 75% RH): 91.8%
assay after storage (60° C., 7 days, 11% RH): 96.7%
assay after storage (60° C., 7 days, 75% RH): 93.7%
assay after storage (80° C., 3 days, 11% RH): 89.7%
assay after storage (80° C., 3 days, 75% RH): 0.3%
Initial assay: 96.9%

Source: patent publication US20250340520A1, “CRYSTALLINE FORMS OF SODIUM (5-(4-BROMOPHENYL)-6-(2-((5-BROMOPYRIMIDIN-2-YL)OXY)ETHOXY)PYRIMIDIN-4-YL)(SULFAMOYL)AMIDE” (IDORSIA PHARMACEUTICALS LTD, priority 2022, published 2025)
